# Reference: patent US20080293931A1, “Methods and compositions for the removal of nucleic acid amplification inhibitors” (priority 2006, published 2008)
# Entries after “also recorded” stand apart in the source; their conditions may differ. Like-named read-outs stand apart in the source and are kept apart here.
# Experiments:
# [1] = Solubility of PIR compounds in aqueous solution; assay type: physicochemical; settings: for solubility: aqueous solution
# E. coli DNA = experiment: PCR of seeded E. coli DNA after PIR treatment of aqueous HA samples (decade of dilution necessary for successful PCR); settings: for Typical dilution decade for PCR / range of dilutions (dilution decade for PCR): aqueous humic samples seeded with E. coli DNA
# Description: Consideration of dilution factors for successful PCR must also be reviewed. In untreated soil extracts containing DNA of interest, successful PCR of the extracted DNA may occur when the polymerase inhibitor is diluted sufficiently such that inhibition is suppressed and PCR may occur. Typical values for the dilution decade at which PCR is successful in samples containing humic materials and DNA of interest are often around decade four (1×10^4). Accordingly, a dilution factor of 10,000 would be necessary for successful PCR in a typical soil extract/sample. This magnitude of dilution may also impact PCR sensitivity for DNA/species already present at low concentrations and result in not identifying an organism that was present in the original sample extract.
# Using this approach for presenting the HA removal data allows for the determination of a PIR compound's effectiveness for HA removal (ε) and compatibility for application in PCR systems via dilution data for PCR.
# [2] = Humic acid (HA) removal from aqueous commercial HA solutions by PIR compounds, fluorimetric HA determination; parameters: key to ε values: ε = −log(1 − efficiency); efficiency = ([HA]i − [HA]f)/[HA]i; settings: for Average Efficiency, ε / Avg Reduction Factor: aqueous humic samples seeded with E. coli DNA; for performance as PIR compound (in words): commercial humic acid solutions
# Description: Humic solutions were in 1×TAE buffer at RT with pH˜7. […] Samples from PIR experiments utilizing these materials were diluted, using 1×TAE, to concentrations falling within the linear response region representative of the humic material used.
# In this study, when samples were interrogated for humic acid concentrations via fluorimetry, known concentrations of commercial humic acids were compared to known concentrations of humic standards.
# FIG. 1 compares the HA removal from samples containing DNA of interest to the molar concentration of varied PIR compounds by plotting an HA reduction factor as the initial [HA] divided by [HA] following treatment with PIR compounds. The commercially available PIR kit, from Mo-BIO, is placed on FIG. 1 for comparison and was arbitrarily assigned a molar concentration of 1 for convenience. […] The data shown in FIG. 1 were generated from varied initial [HA], ranging from ˜5,000 to 300,000 mg/L HA. These varied initial [HA] values represent a “worst case” scenario and these are in comparison to initial [HA] in extractions from problematic soils generating humic acid concentrations typically less than 5,000 mg/L.
# FIG. 2 plots the data from the same experiments represented in FIG. 1, but applying a different approach for data metric. FIG. 2 plots a dimensionless HA removal efficiency (or efficacy) value versus the decade of dilution necessary for successful PCR. The efficiency of HA removal is defined in equation 1 as the initial [HA] minus the final [HA] divided by the initial [HA]. This is essentially a percent removal approach.
# Efficiency=[HA]i−[HA]f/[HA]; (1)
# To further discriminate efficiency values greater than 0.99, the efficiency was subtracted from the integer value of 1, and the −log was taken of 1-efficiency to generate a non-negative value indicative of HA removal efficiency with greater level of discrimination and resolution of values with high degrees of HA removal. This is described by equation 2.
# [3] = aqueous solutions, read-out: solubility in aqueous solutions (molar solubility)
# [4] = starred values of column PIR, M (footnote of Table 6), read-out: maximum molar solubility
# [5] = PIR 1 M, HAi avg 6,500-12,300 depending on compound (Table 6 c2)
# [6] = 4.0 M AMG in phosphate buffer, 30 days storage, 4 C., dark, HA avg ~10,000 mg/L
# [7] = 4.0 M AMG in phosphate buffer, 30 days storage, 25 C., dark, HA avg ~10,000 mg/L
# [8] = 4.0 M AMG in phosphate buffer, 30 days storage, 25 C., light, HA avg ~10,000 mg/L
# [9] = 4.0 M AMG in phosphate buffer, 30 days storage, −20 C., dark, HA avg ~10,000 mg/L
# [10] = 5.5 M AMG in phosphate buffer, 30 days storage, 4 C., dark, HA avg ~10,000 mg/L
# [11] = 5.5 M AMG in phosphate buffer, 30 days storage, 25 C., dark, HA avg ~10,000 mg/L
# [12] = 5.5 M AMG in phosphate buffer, 30 days storage, 25 C., light, HA avg ~10,000 mg/L
# [13] = 5.5 M AMG in phosphate buffer, 30 days storage, −20 C., dark, HA avg ~10,000 mg/L
# [14] = 0.1M DTPB in phosphate buffer, 30 days storage, 4 C., dark, HA avg 50,300 mg/L
# [15] = 0.1M DTPB in phosphate buffer, 30 days storage, 25 C., dark, HA avg 50,300 mg/L
# [16] = 0.1M DTPB in phosphate buffer, 30 days storage, 25 C., light, HA avg 50,300 mg/L
# [17] = 0.1M DTPB in phosphate buffer, 30 days storage, −20 C., dark, HA avg 50,300 mg/L
# [18] = 1.0M DTPB in phosphate buffer, 30 days storage, 4 C., dark, HA avg 50,300 mg/L
# [19] = 1.0M DTPB in phosphate buffer, 30 days storage, 25 C., dark, HA avg 50,300 mg/L
# [20] = 1.0M DTPB in phosphate buffer, 30 days storage, 25 C., light, HA avg 50,300 mg/L
# [21] = 1.0M DTPB in phosphate buffer, 30 days storage, −20 C., dark, HA avg 50,300 mg/L
# [22] = 2M DTPB in phosphate buffer, 30 days storage, 4 C., dark, HA avg 50,300 mg/L
# [23] = 2M DTPB in phosphate buffer, 30 days storage, 25 C., dark, HA avg 50,300 mg/L
# [24] = 2M DTPB in phosphate buffer, 30 days storage, 25 C., light, HA avg 50,300 mg/L
# [25] = 2M DTPB in phosphate buffer, 30 days storage, −20 C., dark, HA avg 50,300 mg/L
# [26] = 1M BRT in phosphate buffer, 19 days storage, 4 C., dark, HA avg 10,200 mg/L
# [27] = 1M BRT in phosphate buffer, 19 days storage, 25 C., dark, HA avg 10,200 mg/L
# [28] = 1M BRT in phosphate buffer, 19 days storage, 25 C., light, HA avg 10,200 mg/L
# [29] = 1M BRT in phosphate buffer, 19 days storage, −20 C., dark, HA avg 10,200 mg/L
compound,measurement,setting,value
"O=C(C[n+]1ccsc1)c1ccccc1 [PTB, Phenacyl Thiazolium Bromide, reference compound]",solubility,[1]; [3],< 1000 mM
same,solubility,[1]; [4],1000 mM
1-thiazole-2-propanone bromide [BAT],Typical dilution decade for PCR,E. coli DNA; [5],4
same,range of dilutions (dilution decade for PCR),E. coli DNA; [5],3-4
same,"Average Efficiency, ε",[2]; [5],0.51
same,Avg Reduction Factor,[2]; [5],3
same,performance as PIR compound (in words),[2],poor performance
"N=C(N)NN [AMG, Aminoguanidine, reference compound]",Decade of dilution,E. coli DNA; [6],2
same,Decade of dilution,E. coli DNA; [7],2
same,Decade of dilution,E. coli DNA; [8],2
same,Decade of dilution,E. coli DNA; [9],2
same,Decade of dilution,E. coli DNA; [10],2
same,Decade of dilution,E. coli DNA; [11],2
same,Decade of dilution,E. coli DNA; [12],2
same,Decade of dilution,E. coli DNA; [13],2
same,Typical dilution decade for PCR,"E. coli DNA; PIR 4 M, HAi avg 35,000",4
same,range of dilutions (dilution decade for PCR),"E. coli DNA; PIR 4 M, HAi avg 35,000",3-4
same,dilution required for successful PCR products,E. coli DNA; both 4.0 and 5.5 M AMG,2 orders of magnitude
same,HA reduction factor,[2]; [6],7
same,ε values,[2]; [6],0.83
same,HA reduction factor,[2]; [7],6
same,ε values,[2]; [7],0.81
same,HA reduction factor,[2]; [8],6
same,ε values,[2]; [8],0.80
same,HA reduction factor,[2]; [9],4
same,ε values,[2]; [9],0.65
same,ε values,"[2]; 4.0M AMG, 30 days storage",less than 1
same,HA reduction factor,[2]; [10],14
same,ε values,[2]; [10],1.15
same,HA reduction factor,[2]; [11],15
same,ε values,[2]; [11],1.16
same,HA reduction factor,[2]; [12],19
same,ε values,[2]; [12],1.13
same,HA reduction factor,[2]; [13],19
same,ε values,[2]; [13],1.28
same,ε values,"[2]; 5.5 M AMG, 30 days storage",less than 1.3
same,Typical HA reduction factors,"[2]; AMG 4.0 and 5.5 M, 30 days storage, HA ~10,000 mg/L",less than 20
same,"Average Efficiency, ε","[2]; PIR 4 M, HAi avg 35,000",0.77
same,Avg Reduction Factor,"[2]; PIR 4 M, HAi avg 35,000",6
same,performance as PIR compound (in words),[2],poor performance
CC(=O)C[n+]1ccsc1,performance as PIR compound (in words),[2],did not perform well
"Cc1ncc(C[n+]2csc(CCO[P@](=O)(O)OP(=O)(O)O)c2C)c(N)n1 [THI-PP, thiamine pyrophosphate]",Typical dilution decade for PCR,"E. coli DNA; PIR 0.3 M, HAi avg 14,000",0
same,range of dilutions (dilution decade for PCR),"E. coli DNA; PIR 0.3 M, HAi avg 14,000",0-3
same,"Average Efficiency, ε","[2]; PIR 0.3 M, HAi avg 14,000",2.57
same,Avg Reduction Factor,"[2]; PIR 0.3 M, HAi avg 14,000",384
same,performance as PIR compound (in words),[2],did not perform well; also recorded: poor performance
same,solubility,[1]; [3],300 mM
same,solubility,[1]; [4],300 mM
same,solubility in aqueous solutions (molar solubility),[1]; aqueous solutions,~300 mM
"O=C(C[n+]1ccsc1)C[n+]1ccsc1 [DTPB, 1,3-Dithiazole-2-Propanone Dibromide]",Decade of dilution,E. coli DNA; [14],2
same,Decade of dilution,E. coli DNA; [15],2
same,Decade of dilution,E. coli DNA; [16],2
same,Decade of dilution,E. coli DNA; [17],2
same,Decade of dilution,E. coli DNA; [18],1
same,Decade of dilution,E. coli DNA; [19],1
same,Decade of dilution,E. coli DNA; [20],1
same,Decade of dilution,E. coli DNA; [21],1
same,Decade of dilution,E. coli DNA; [22],1
same,Decade of dilution,E. coli DNA; [23],1
same,Decade of dilution,E. coli DNA; [24],1
same,Decade of dilution,E. coli DNA; [25],1
same,Typical dilution decade for PCR,E. coli DNA; [5],2
same,range of dilutions (dilution decade for PCR),E. coli DNA; [5],1-2
same,HA reduction factor,[2]; [14],5
same,ε values,[2]; [14],0.70
same,HA reduction factor,[2]; [15],6
same,ε values,[2]; [15],0.76
same,HA reduction factor,[2]; [16],6
same,ε values,[2]; [16],0.75
same,HA reduction factor,[2]; [17],7
same,ε values,[2]; [17],0.87
same,HA reduction factor,[2]; [18],143
same,ε values,[2]; [18],2.16
same,HA reduction factor,[2]; [19],160
same,ε values,[2]; [19],2.20
same,HA reduction factor,[2]; [20],194
same,ε values,[2]; [20],2.29
same,HA reduction factor,[2]; [21],114
same,ε values,[2]; [21],2.06
same,HA reduction factor,[2]; [22],64
same,ε values,[2]; [22],1.81
same,HA reduction factor,[2]; [23],99
same,ε values,[2]; [23],1.99
same,HA reduction factor,[2]; [24],107
same,ε values,[2]; [24],2.03
same,HA reduction factor,[2]; [25],50
same,ε values,[2]; [25],1.70
same,"Average Efficiency, ε",[2]; [5],2.18
same,Avg Reduction Factor,[2]; [5],153
same,performance as PIR compound (in words),[2],poor performance
Bromothiazole [BRT],Decade of dilution,E. coli DNA; [26],0
same,Decade of dilution,E. coli DNA; [27],0
same,Decade of dilution,E. coli DNA; [28],0
same,Decade of dilution,E. coli DNA; [29],0
same,Typical dilution decade for PCR,E. coli DNA; [5],0
same,range of dilutions (dilution decade for PCR),E. coli DNA; [5],0-3
same,PCR products imaged after gel electrophoresis (band intensity),E. coli DNA; aqueous HA samples seeded with E. coli DNA,weak
same,ε values,[2]; [26],1.99
same,ε values,[2]; [27],2.45
same,ε values,[2]; [28],2.18
same,ε values,[2]; [29],1.36
same,increase of PIR ability (HA reduction factor) on day 19 versus day zero,"[2]; 1M BRT stored at room temperature, ambient lighting",~3 factor
same,increase of PIR ability (HA reduction factor) on day 19,"[2]; 1M BRT stored at room temperature, kept in the dark",greater than 2 factor
same,"Average Efficiency, ε",[2]; [5],2.21
same,Avg Reduction Factor,[2]; [5],199
"Nc1ccc(C(=O)C[n+]2ccsc2)cc1.[Br-] [PTB-A, 4-Amine-Phenacyl Thiazolium Bromide]",performance as PIR compound (in words),[2],did not perform well; also recorded: poor performance
